Experimental data: the NIST ThermoML archive (doi:10.1016/j.jct.2017.10.002)
Several values for one entry are separate records, joined by “and”; a condition that tells them apart may be missing. Equal entries are not always repeated.

Assay: molar heat capacity at constant pressure
Details: 101.33 kPa, relaxation calorimetry

CCc1ncc[n-]1.CCc1ncc[n-]1.[Zn+2] [zinc(II) 2-ethylimidazolide]
molar heat capacity at constant pressure
Details | Crystal | Glass
1 K | – | 0.01063 J/K/mol
1.832 K | 0.0493 J/K/mol | –
1.836 K | 0.01638 J/K/mol | –
1.837 K | 0.04503 J/K/mol | –
1.839 K | – | 0.03581 J/K/mol
1.88 K | 0.05213 J/K/mol | –
1.914 K | 0.04977 J/K/mol | –
1.915 K | – | 0.04142 J/K/mol
1.916 K | 0.0188 J/K/mol | –
1.932 K | 0.05559 J/K/mol | –
1.989 K | 0.0603 J/K/mol | –
2 K | 0.0589 J/K/mol [middle of 4 runs] | 0.04827 J/K/mol
2.001 K | – | 0.04687 J/K/mol
2.005 K | 0.02171 J/K/mol | –
2.051 K | 0.06589 J/K/mol | –
2.09 K | 0.06722 J/K/mol | –
2.091 K | – | 0.05348 J/K/mol
2.099 K | 0.02469 J/K/mol | –
2.118 K | 0.07352 J/K/mol | –
2.183 K | 0.07697 J/K/mol | –
2.184 K | – | 0.06212 J/K/mol
2.19 K | 0.08177 J/K/mol | –
2.197 K | 0.02817 J/K/mol | –
2.265 K | 0.0916 J/K/mol | –
2.283 K | 0.08765 J/K/mol | –
2.285 K | – | 0.07138 J/K/mol
2.301 K | 0.03272 J/K/mol | –
2.346 K | 0.1035 J/K/mol | –
2.41 K | 0.03888 J/K/mol | –
2.411 K | 0.1031 J/K/mol | –
2.417 K | – | 0.08449 J/K/mol
2.488 K | 0.1258 J/K/mol | –
2.509 K | – | 0.09566 J/K/mol
2.512 K | 0.1183 J/K/mol | –
2.516 K | 0.04352 J/K/mol | –
2.61 K | 0.1475 J/K/mol | –
2.615 K | 0.135 J/K/mol | –
2.639 K | 0.0517 J/K/mol | –
2.646 K | – | 0.1124 J/K/mol
2.733 K | 0.1558 J/K/mol | –
2.738 K | – | 0.1254 J/K/mol
2.739 K | 0.1709 J/K/mol | –
2.744 K | 0.0566 J/K/mol | –
2.854 K | 0.06599 J/K/mol | –
2.858 K | 0.194 J/K/mol | –
2.86 K | 0.1727 J/K/mol | –
2.868 K | – | 0.1481 J/K/mol
2.979 K | 0.1934 J/K/mol | –
2.986 K | 0.2216 J/K/mol | 0.1712 J/K/mol
2.992 K | 0.07481 J/K/mol | –
3 K | 0.2257 J/K/mol and 0.076 J/K/mol and 0.2038 J/K/mol | 0.168 J/K/mol
3.106 K | 0.08446 J/K/mol | –
3.109 K | 0.2254 J/K/mol | –
3.118 K | 0.2529 J/K/mol | –
3.122 K | – | 0.1906 J/K/mol
3.246 K | 0.09833 J/K/mol | –
3.248 K | 0.2525 J/K/mol | –
3.259 K | 0.2898 J/K/mol | –
3.264 K | – | 0.2232 J/K/mol
3.388 K | 0.2988 J/K/mol | –
3.395 K | 0.1127 J/K/mol | –
3.397 K | – | 0.2534 J/K/mol
3.407 K | 0.3327 J/K/mol | –
3.536 K | 0.3331 J/K/mol | –
3.537 K | 0.1275 J/K/mol | –
3.551 K | – | 0.2838 J/K/mol
3.562 K | 0.381 J/K/mol | –
3.691 K | 0.3887 J/K/mol | –
3.692 K | 0.1432 J/K/mol | –
3.699 K | – | 0.3307 J/K/mol
3.737 K | 0.4416 J/K/mol | –
3.853 K | 0.4343 J/K/mol and 0.1693 J/K/mol | –
3.861 K | – | 0.3658 J/K/mol
3.916 K | 0.5079 J/K/mol | –
4 K | 0.5386 J/K/mol and 0.1872 J/K/mol and 0.4762 J/K/mol | 0.4158 J/K/mol
4.023 K | 0.1911 J/K/mol | –
4.024 K | 0.4906 J/K/mol | –
4.033 K | – | 0.4343 J/K/mol
4.093 K | 0.5776 J/K/mol | –
4.203 K | 0.2234 J/K/mol | –
4.204 K | 0.5288 J/K/mol | –
4.213 K | – | 0.4859 J/K/mol
4.288 K | 0.6588 J/K/mol | –
4.385 K | 0.6193 J/K/mol | –
4.39 K | 0.2481 J/K/mol | –
4.397 K | – | 0.5485 J/K/mol
4.475 K | 0.7416 J/K/mol | –
4.577 K | 0.2815 J/K/mol | –
4.58 K | 0.6992 J/K/mol | –
4.588 K | – | 0.6228 J/K/mol
4.673 K | 0.833 J/K/mol | –
4.782 K | 0.3148 J/K/mol | –
4.784 K | 0.7873 J/K/mol | –
4.797 K | – | 0.7076 J/K/mol
4.885 K | 0.9362 J/K/mol | –
4.995 K | 0.8682 J/K/mol and 0.3599 J/K/mol | –
5 K | 0.9962 J/K/mol and 0.3674 J/K/mol and 0.8773 J/K/mol | 0.8029 J/K/mol
5.008 K | – | 0.8138 J/K/mol
5.104 K | 1.051 J/K/mol | –
5.217 K | 0.968 J/K/mol and 0.4058 J/K/mol | –
5.228 K | – | 0.8928 J/K/mol
5.341 K | 1.18 J/K/mol | –
5.447 K | 1.121 J/K/mol | –
5.449 K | 0.4865 J/K/mol | –
5.457 K | – | 1.022 J/K/mol
5.583 K | 1.326 J/K/mol | –
5.686 K | 0.5523 J/K/mol | –
5.687 K | 1.228 J/K/mol | –
5.699 K | – | 1.17 J/K/mol
5.837 K | 1.479 J/K/mol | –
5.933 K | 1.341 J/K/mol | –
5.936 K | 0.614 J/K/mol | –
5.952 K | – | 1.278 J/K/mol
6 K | 1.585 J/K/mol and 0.6261 J/K/mol and 1.401 J/K/mol | 1.321 J/K/mol
6.1 K | 1.651 J/K/mol | –
6.189 K | 1.538 J/K/mol | –
6.195 K | 0.6531 J/K/mol | –
6.204 K | – | 1.457 J/K/mol
6.407 K | 1.86 J/K/mol | –
6.464 K | 0.7855 J/K/mol | –
6.465 K | 1.656 J/K/mol | –
6.479 K | – | 1.613 J/K/mol
6.685 K | 2.057 J/K/mol | –
6.752 K | 1.863 J/K/mol and 0.8975 J/K/mol | –
6.765 K | – | 1.809 J/K/mol
6.98 K | 2.277 J/K/mol | –
7 K | 2.294 J/K/mol and 0.9817 J/K/mol and 2.037 J/K/mol | 1.956 J/K/mol
7.049 K | 2.08 J/K/mol and 1.007 J/K/mol | –
7.062 K | – | 1.981 J/K/mol
7.296 K | 2.524 J/K/mol | –
7.357 K | 2.322 J/K/mol and 1.115 J/K/mol | –
7.372 K | – | 2.248 J/K/mol
7.627 K | 2.797 J/K/mol | –
7.681 K | 1.273 J/K/mol | –
7.686 K | 2.488 J/K/mol | –
7.698 K | – | 2.428 J/K/mol
7.976 K | 3.092 J/K/mol | –
8 K | 3.113 J/K/mol and 1.446 J/K/mol and 2.772 J/K/mol | 2.689 J/K/mol
8.016 K | 1.458 J/K/mol | –
8.018 K | 2.783 J/K/mol | –
8.034 K | – | 2.703 J/K/mol
8.339 K | 3.414 J/K/mol | –
8.366 K | 1.661 J/K/mol | –
8.367 K | 3.093 J/K/mol | –
8.389 K | – | 3.029 J/K/mol
8.718 K | 3.76 J/K/mol | –
8.733 K | 3.359 J/K/mol | –
8.737 K | 1.859 J/K/mol | –
8.753 K | – | 3.269 J/K/mol
9 K | 4.029 J/K/mol and 2.004 J/K/mol and 3.588 J/K/mol | 3.511 J/K/mol
9.115 K | 4.141 J/K/mol | –
9.117 K | 2.11 J/K/mol | –
9.118 K | 3.738 J/K/mol | –
9.136 K | – | 3.605 J/K/mol
9.514 K | 3.952 J/K/mol | –
9.518 K | 2.336 J/K/mol | –
9.529 K | 4.549 J/K/mol | –
9.536 K | – | 4.033 J/K/mol
9.931 K | 4.428 J/K/mol | –
9.935 K | 2.594 J/K/mol | –
9.953 K | – | 4.356 J/K/mol
10 K | 5.029 J/K/mol and 2.651 J/K/mol and 4.482 J/K/mol | 4.413 J/K/mol
10.12 K | 5.166 J/K/mol | –
10.35 K | 4.823 J/K/mol and 2.874 J/K/mol | 4.741 J/K/mol
10.59 K | 5.656 J/K/mol | –
10.77 K | 5.231 J/K/mol and 3.187 J/K/mol | –
10.78 K | – | 5.172 J/K/mol
11.06 K | 6.17 J/K/mol | –
11.24 K | 5.701 J/K/mol and 3.55 J/K/mol | –
11.25 K | – | 5.657 J/K/mol
11.54 K | 6.677 J/K/mol | –
11.74 K | 6.214 J/K/mol and 3.967 J/K/mol | –
11.75 K | – | 6.171 J/K/mol
12.06 K | 7.299 J/K/mol | –
12.26 K | 6.744 J/K/mol and 4.399 J/K/mol | –
12.27 K | – | 6.731 J/K/mol
12.59 K | 7.93 J/K/mol | –
12.81 K | 7.34 J/K/mol and 4.896 J/K/mol | 7.322 J/K/mol
13.15 K | 8.616 J/K/mol | –
13.37 K | 7.965 J/K/mol and 5.426 J/K/mol | –
13.38 K | – | 7.966 J/K/mol
13.74 K | 9.343 J/K/mol | –
13.96 K | 8.65 J/K/mol and 6.006 J/K/mol | –
13.97 K | – | 8.66 J/K/mol
14.35 K | 10.14 J/K/mol | –
14.57 K | 9.355 J/K/mol and 6.627 J/K/mol | –
14.59 K | – | 9.395 J/K/mol
14.99 K | 10.97 J/K/mol | –
15 K | 10.96 J/K/mol and 7.064 J/K/mol and 9.871 J/K/mol | 9.887 J/K/mol
15.22 K | 10.14 J/K/mol and 7.319 J/K/mol | –
15.23 K | – | 10.18 J/K/mol
15.49 K | 11.63 J/K/mol | –
15.72 K | 7.865 J/K/mol | –
15.73 K | 10.74 J/K/mol | –
15.74 K | – | 10.79 J/K/mol
16.94 K | 13.59 J/K/mol | –
17.17 K | 12.58 J/K/mol | –
17.18 K | 9.551 J/K/mol | 12.66 J/K/mol
18.52 K | 15.74 J/K/mol | –
18.77 K | 11.5 J/K/mol | –
18.78 K | 14.67 J/K/mol | –
18.79 K | – | 14.78 J/K/mol
20 K | 17.74 J/K/mol and 13.06 J/K/mol and 16.28 J/K/mol | 16.43 J/K/mol
